Test results published in publication PMC2725430 (Journal of medicinal chemistry, 2009).

What was measured:
wild type HBV = assay: HBV antiviral assay in 2.2.15 cells, HBV DNA by quantitative blot hybridization; assay type: cell-based; settings: read-out: Anti-HCV activity EC50(µM) virion, extracellular virion HBV DNA, nine consecutive daily doses
2.2.15 cells = assay: Cytotoxicity by neutral red dye uptake in 2.2.15 cells; assay type: cell-based; settings: read-out: Cytotoxicity IC50; 2.2.15 cells, neutral red dye uptake
[1] = Cytotoxicity by neutral red dye uptake in 2.2.15 cells; assay type: cell-based; settings: human, 2.2.15 cells (confluent cultures, HBV-replicating)
HCV RNA replicon = HCV RNA replicon assay in Huh7 ET cells; assay type: cell-based; settings: in comparison to the parent compound 2
HBV WT = assay: Intracellular HBV DNA replication assay, transient transfection, WT; assay type: cell-based; settings: Hepatitis B virus, 96 h
HBV mutant rtL180M = assay: Intracellular HBV DNA replication assay, transient transfection, rtL180M; assay type: cell-based; settings: Hepatitis B virus, 96 h
HBV mutant rtM204V = assay: Intracellular HBV DNA replication assay, transient transfection, rtM204V; assay type: cell-based; settings: Hepatitis B virus, 96 h
HBV mutant rtM204I = assay: Intracellular HBV DNA replication assay, transient transfection, rtM204I; assay type: cell-based; settings: Hepatitis B virus, 96 h

Compound: 4-amino-7-(2,3-dihydroxy-4-hydroxymethyl-4-cyclopenten-1-yl)-7H-pyrrolo[2,3-d]pyrimidine [Compound 2]
- EC50 (wild type HBV): 0.6 µM
- IC50 (2.2.15 cells): 22 µM
- IC50 (Huh7 ET cells): > 100 µM

Compound: Nc1ccn([C@@H]2CS[C@H](CO)O2)c(=O)n1 [Compound 3TC, lamivudine, reference compound]
- IC50 at 9 days [1]: > 2000 µM

Compound: Nc1ncnc2c1c(F)cn2[C@@H]1C=C(CO)[C@@H](O)[C@H]1O [Compound 12, (-)-(1R, 2S, 3R)-4-Amino-5-fluoro-7-[2,3-dihydroxy-4-hydroxymethyl-4-cyclopenten-1-yl]-7H-pyrrolo[2,3-d]pyrimidine]
- anti-HCV activity (in words) (HCV RNA replicon): devoid of anti-HCV activity

Compound: Nc1ncnc2c1c(I)cn2[C@@H]1C=C(CO)[C@@H](O)[C@H]1O [Compound 15, (-)-(1R, 2S, 3R)-4-Amino-5-iodo-7-[2,3-dihydroxy-4-hydroxymethyl-4-cyclopenten-1-yl] -7H-pyrrolo[2,3-d] pyrimidine]
- IC50 at 9 days [1]: > 300 µM

Compound: C=Cc1cn([C@@H]2C=C(CO)[C@@H](O)[C@H]2O)c2ncnc(N)c12 [Compound 22, (-)-(1R, 2S, 3R)-4-Amino-5-ethenyl-7-[2,3-dihydroxy-4-hydroxymethyl-4-cyclopenten-1-yl]-7H-pyrrolo[2,3-d]pyrimidine]
- IC50 at 9 days [1]: > 300 µM

Compound: C#Cc1cn([C@@H]2C=C(CO)[C@@H](O)[C@H]2O)c2ncnc(N)c12 [Compound 24, (-)-(1R, 2S, 3R)-4-Amino-5-ethynyl-7-[2,3-dihydroxy-4-hydroxymethyl-4-cyclopenten-1-yl]-7H-pyrrolo[2,3-d]pyrimidine]
- EC50 (HBV WT): 2.5 µM
- EC50 (HBV mutant rtL180M): 2 µM
- EC50 (HBV mutant rtM204V): 2.1 µM
- IC50 at 9 days [1]: > 300 µM
- EC50 (HBV mutant rtM204I): 3 µM
